According to the supplement of paper PMC10307832:

Key:
Experiment in all cases: relative viability (nuclei count vs DMSO), 5 days (fraction); higher = more cells survive
Pictilisib + Palbociclib = compound: CS(=O)(=O)N1CCN(Cc2cc3nc(-c4cccc5[nH]ncc45)nc(N4CCOCC4)c3s2)CC1 [Pictilisib] + CC(=O)c1c(C)c2cnc(Nc3ccc(N4CCNCC4)cn3)nc2n(C2CCCC2)c1=O [Palbociclib] (partner 0.5 µM)
Method in brief: (§1)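 The day after seeding in 1536-well plates, lung cancer cell lines were treated by pin tool with a single drug, or with a fixed anchor-drug dose together with five library-drug doses (not always all listed) in √10 steps. After 5 days, a combined fix-and-stain solution (final 0.05% Triton X-100, 1% formaldehyde, 1 ug/ml Hoechst) was added. Nuclei counted on 4× images gave relative viability as treated counts over vehicle counts, reported as the median of duplicate plates.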

Pictilisib + Foretinib = compound: CS(=O)(=O)N1CCN(Cc2cc3nc(-c4cccc5[nH]ncc45)nc(N4CCOCC4)c3s2)CC1 [Pictilisib] + COc1cc2c(Oc3ccc(NC(=O)C4(C(=O)Nc5ccc(F)cc5)CC4)cc3F)ccnc2cc1OCCCN1CCOCC1 [Foretinib] (partner 0.25 µM)
Method in brief: as §1

Pictilisib + Dasatinib = compound: CS(=O)(=O)N1CCN(Cc2cc3nc(-c4cccc5[nH]ncc45)nc(N4CCOCC4)c3s2)CC1 [Pictilisib] + Cc1nc(Nc2ncc(C(=O)Nc3c(C)cccc3Cl)s2)cc(N2CCN(CCO)CC2)n1 [Dasatinib] (partner 0.075 µM)
Method in brief: as §1

Pictilisib + Decitabine = compound: CS(=O)(=O)N1CCN(Cc2cc3nc(-c4cccc5[nH]ncc45)nc(N4CCOCC4)c3s2)CC1 [Pictilisib] + Nc1ncn([C@H]2C[C@H](O)[C@@H](CO)O2)c(=O)n1 [Decitabine] (partner 2 µM)
Method in brief: as §1

MK-2206 + Pemetrexed = compound: NC1(c2ccc(-c3nc4ccn5c(=O)[nH]nc5c4cc3-c3ccccc3)cc2)CCC1 [MK-2206] + Nc1nc2[nH]cc(CCc3ccc(C(=O)N[C@@H](CCC(=O)O)C(=O)O)cc3)c2c(=O)[nH]1 [Pemetrexed] (partner 0.2 µM)
Method in brief: as §1

Cell Line	relative viability (Pictilisib + Palbociclib; first compound 0.02 µM)	relative viability (Pictilisib + Palbociclib; first compound 0.06325 µM)	relative viability (Pictilisib + Palbociclib; first compound 0.6325 µM)	relative viability (Pictilisib + Palbociclib; first compound 2 µM)	relative viability (Pictilisib + Foretinib; first compound 0.02 µM)	relative viability (Pictilisib + Foretinib; first compound 0.06325 µM)	relative viability (Pictilisib + Foretinib; first compound 0.6325 µM)	relative viability (Pictilisib + Foretinib; first compound 2 µM)	relative viability (Pictilisib + Dasatinib; first compound 0.02 µM)	relative viability (Pictilisib + Dasatinib; first compound 0.06325 µM)	relative viability (Pictilisib + Dasatinib; first compound 0.6325 µM)	relative viability (Pictilisib + Dasatinib; first compound 2 µM)	relative viability (Pictilisib + Decitabine; first compound 0.02 µM)	relative viability (Pictilisib + Decitabine; first compound 0.06325 µM)	relative viability (Pictilisib + Decitabine; first compound 0.6325 µM)	relative viability (Pictilisib + Decitabine; first compound 2 µM)	relative viability (MK-2206 + Pemetrexed; first compound 0.01 µM)	relative viability (MK-2206 + Pemetrexed; first compound 0.03162 µM)	relative viability (MK-2206 + Pemetrexed; first compound 0.3162 µM)	relative viability (MK-2206 + Pemetrexed; first compound 1 µM)
LU99A	0.426	0.288	0.316	0.177	1.04	0.866	0.674	0.464	0.514	0.567	0.281	0.204	0.969	0.919	0.901	0.441	0.174	0.152	0.186	0.203
LXF-289	0.584	0.588	0.621	0.398	1.01	0.931	0.957	0.926	0.189	0.212	0.104	0.0692	0.361	0.4	0.337	0.443	0.886	0.873	0.956	1.17
NCI-H23	0.505	0.439	0.351	0.186	0.919	0.94	0.778	0.437	0.864	0.863	0.487	0.234	0.305	0.333	0.309	0.271	0.713	0.559	0.651	0.64
NCI-H322M	0.496	0.495	0.448	0.415	0.936	0.985	0.792	0.559	0.226	0.253	0.271	0.243	0.735	0.696	0.656	0.43	0.64	0.634	0.666	0.679
NCI-H358	0.116	0.165	0.121	0.115	0.749	0.763	0.548	0.274	0.147	0.148	0.123	0.0945	0.199	0.199	0.18	0.115	0.169	0.154	0.186	0.162
NCI-H441	0.216	0.192	0.152	0.148	0.929	0.749	0.745	0.539	0.639	0.528	0.352	0.256	0.263	0.234	0.265	0.281	0.256	0.238	0.255	0.249
NCI-H460	0.185	0.161	0.111	0.0339	1.01	0.978	0.883	0.243	0.531	0.545	0.205	0.0803	0.528	0.558	0.301	0.109	0.0681	0.0647	0.0757	0.0577
NCI-H520	0.217	0.234	0.144	0.125	0.695	0.694	0.4	0.244	0.176	0.135	0.146	0.114	0.492	0.478	0.237	0.168	0.612	0.68	0.351	0.183
NCI-H647	0.365	0.419	0.254	0.144	1.05	0.997	1.15	0.758	0.195	0.172	0.108	0.0934	0.308	0.389	0.276	0.236	0.201	0.165	0.144	0.134
NCI-H650	0.323	0.308	0.271	0.265	0.984	1.09	1	0.877	0.498	0.497	0.41	0.333	0.336	0.297	0.318	0.411	0.979	0.913	0.818	1.02
NCI-H661	0.446	0.384	0.347	0.299	1.01	1.06	1.05	0.645	0.942	0.878	0.439	0.304	0.546	0.58	0.523	0.412	0.986	0.91	0.876	0.877
NCI-H838	0.191	0.206	0.174	0.124	0.973	0.895	0.929	0.45	0.346	0.277	0.279	0.217	0.474	0.492	0.381	0.371	0.245	0.227	0.255	0.201
NCI-H1355	0.405	0.356	0.293	0.217	0.931	0.868	0.849	0.398	0.645	0.711	0.469	0.331	0.336	0.388	0.383	0.331	1.04	1.02	1.02	1.04
NCI-H1395	0.657	0.696	0.515	0.412	0.966	1.01	0.962	0.588	0.406	0.392	0.296	0.265	0.708	0.798	0.652	0.5	0.807	0.869	0.79	0.812
NCI-H1437	0.309	0.337	0.401	0.216	1.23	1.29	1.36	0.96	0.445	0.386	0.255	0.178	0.499	0.534	0.536	0.438	0.321	0.325	0.334	0.258
NCI-H1650	0.381	0.334	0.223	0.193	1.25	1.39	1.03	0.441	0.406	0.277	0.174	0.16	0.41	0.39	0.438	0.432	0.3	0.379	0.319	0.347

Cell Line	relative viability (Pictilisib + Palbociclib; first compound 0.02 µM)	relative viability (Pictilisib + Palbociclib; first compound 0.06325 µM)	relative viability (Pictilisib + Palbociclib; first compound 0.6325 µM)	relative viability (Pictilisib + Palbociclib; first compound 2 µM)	relative viability (Pictilisib + Foretinib; first compound 0.02 µM)	relative viability (Pictilisib + Foretinib; first compound 0.06325 µM)	relative viability (Pictilisib + Foretinib; first compound 0.6325 µM)	relative viability (Pictilisib + Foretinib; first compound 2 µM)	relative viability (Pictilisib + Dasatinib; first compound 0.02 µM)	relative viability (Pictilisib + Dasatinib; first compound 0.06325 µM)	relative viability (Pictilisib + Dasatinib; first compound 0.6325 µM)	relative viability (Pictilisib + Dasatinib; first compound 2 µM)	relative viability (Pictilisib + Decitabine; first compound 0.02 µM)	relative viability (Pictilisib + Decitabine; first compound 0.06325 µM)	relative viability (Pictilisib + Decitabine; first compound 0.6325 µM)	relative viability (Pictilisib + Decitabine; first compound 2 µM)	relative viability (MK-2206 + Pemetrexed; first compound 0.01 µM)	relative viability (MK-2206 + Pemetrexed; first compound 0.03162 µM)	relative viability (MK-2206 + Pemetrexed; first compound 0.3162 µM)	relative viability (MK-2206 + Pemetrexed; first compound 1 µM)
NCI-H1651	0.518	0.499	0.496	0.378	0.764	0.609	0.678	0.572	0.35	0.387	0.358	0.201	0.473	0.603	0.505	0.413	0.562	0.575	0.621	0.513
NCI-H1666	0.606	0.713	0.668	0.607	0.987	0.968	0.914	0.66	0.805	0.876	0.568	0.523	0.659	0.719	0.702	0.574	0.793	0.774	1.03	0.787
NCI-H1734	0.303	0.338	0.281	0.192	0.918	0.641	0.579	0.35	0.451	0.424	0.281	0.182	0.472	0.481	0.418	0.338	0.393	0.391	0.401	0.391
NCI-H1755	0.447	0.417	0.458	0.323	0.901	0.883	0.778	0.58	0.406	0.415	0.246	0.187	0.743	0.667	0.748	0.565	0.405	0.404	0.353	0.374
NCI-H1793	0.25	0.234	0.199	0.183	0.563	0.448	0.415	0.21	0.361	0.39	0.351	0.243	0.436	0.518	0.343	0.239	0.908	0.863	0.844	0.783
NCI-H1915	0.524	0.542	0.5	0.471	1.07	1.12	1.1	1.02	0.326	0.317	0.304	0.286	0.259	0.251	0.259	0.283	0.487	0.42	0.473	0.494
NCI-H1944	0.322	0.235	0.226	0.183	0.866	0.737	0.627	0.382	0.231	0.186	0.164	0.173	0.423	0.352	0.391	0.315	0.612	0.575	0.603	0.576
NCI-H1975	0.553	0.544	0.342	0.143	0.834	0.902	0.603	0.25	0.368	0.242	0.105	0.144	0.385	0.377	0.329	0.257	0.314	0.286	0.331	0.262
NCI-H1993	0.573	0.622	0.497	0.37	0.678	0.613	0.69	0.599	0.508	0.467	0.483	0.58	0.692	0.483	0.459	0.458	0.727	0.555	0.516	0.477
NCI-H2009	0.149	0.175	0.165	0.125	1.28	1.17	1.13	0.812	0.307	0.298	0.159	0.129	0.443	0.406	0.412	0.329	1.05	1.01	1.05	1.03
NCI-H2023	0.339	0.33	0.161	0.148	0.838	0.804	0.578	0.183	0.556	0.509	0.182	0.0932	0.211	0.2	0.215	0.148	0.266	0.195	0.25	0.209
NCI-H2085	0.465	0.462	0.362	0.267	0.858	0.811	0.572	0.329	0.241	0.22	0.198	0.18	0.521	0.631	0.511	0.369	0.866	1.02	0.953	0.841
NCI-H2087	0.199	0.255	0.19	0.162	1	1.19	0.828	0.588	0.672	0.822	0.632	0.691	0.212	0.344	0.189	0.151	0.623	0.624	0.667	0.684
NCI-H2126	0.357	0.317	0.32	0.341	1.23	1.14	0.931	0.423	0.626	0.566	0.337	0.3	0.559	0.57	0.473	0.494	0.708	0.653	0.61	0.701
NCI-H2170	0.351	0.375	0.266	0.165	1	0.983	0.827	0.772	0.544	0.754	0.522	0.343	0.46	0.445	0.462	0.366	0.246	0.264	0.286	0.24
